Calls of active or inactive are those of the source. No cut-off for these calls is given here.
Legend:
Type in all cases: functional
[1] = Cytotoxicity against human Caki1 cells at 10 uM after 48 hrs by SRB assay; conditions: CAKI-1, 48 h, read-out: GI
[2] = Cytotoxicity against human RXF393 cells at 10 uM after 48 hrs by SRB assay; conditions: RXF 393, 48 h, read-out: GI
SN12C = test: Cytotoxicity against human SN12C cells at 10 uM after 48 hrs by SRB assay; conditions: read-out: GI
TK-10 = test: Cytotoxicity against human TK10 cells at 10 uM after 48 hrs by SRB assay
[3] = Cytotoxicity against human UO31 cells at 10 uM after 48 hrs by SRB assay; conditions: UO-31, 48 h, read-out: GI
[4] = Cytotoxicity against human PC3 cells at 10 uM after 48 hrs by SRB assay; conditions: PC-3, 48 h, read-out: GI
[5] = Cytotoxicity against human DU145 cells at 10 uM after 48 hrs by SRB assay; conditions: DU-145, 48 h, read-out: GI
MCF7 = test: Cytotoxicity against human MCF7 cells at 10 uM after 48 hrs by SRB assay; conditions: MCF7, 48 h, read-out: GI
MDA-MB-231 = test: Cytotoxicity against human MDA-MB-231 cells at 10 uM after 48 hrs by SRB assay; conditions: MDA-MB-231, 48 h, read-out: GI
[6] = Cytotoxicity against human Hs 578T cells at 10 uM after 48 hrs by SRB assay; conditions: read-out: GI
BT-549 = test: Cytotoxicity against human BT549 cells at 10 uM after 48 hrs by SRB assay
T47D = test: Cytotoxicity against human T47D cells at 10 uM after 48 hrs by SRB assay
MDA-MB-468 = test: Cytotoxicity against human MDA-MB-468 cells at 10 uM after 48 hrs by SRB assay; conditions: MDA-MB-468, 48 h, read-out: GI
CCRF-CEM = test: Cytotoxicity against human CCRF-CEM cells at 10 uM after 48 hrs by SRB assay; conditions: read-out: GI
[7] = Cytotoxicity against human HL-60(TB) cells at 10 uM after 48 hrs by SRB assay; conditions: HL-60, 48 h, read-out: GI
K562 = test: Cytotoxicity against human K562 cells at 10 uM after 48 hrs by SRB assay; conditions: K562, 48 h, read-out: GI
[8] = Cytotoxicity against human MOLT4 cells at 10 uM after 48 hrs by SRB assay; conditions: MOLT-4, 48 h, read-out: GI
[9] = Cytotoxicity against human RPMI8226 cells at 10 uM after 48 hrs by SRB assay; conditions: RPMI-8226, 48 h, read-out: GI
SR = test: Cytotoxicity against human SR cells at 10 uM after 48 hrs by SRB assay; conditions: read-out: GI
A549 = test: Cytotoxicity against human A549 cells at 10 uM after 48 hrs by SRB assay; conditions: A549, 48 h, read-out: GI
[10] = Cytotoxicity against human HOP62 cells at 10 uM after 48 hrs by SRB assay; conditions: HOP-62, 48 h, read-out: GI
[11] = Cytotoxicity against human HOP92 cells at 10 uM after 48 hrs by SRB assay; conditions: HOP-92, 48 h, read-out: GI
NCI-H226 = test: Cytotoxicity against human NCI-H226 cells at 10 uM after 48 hrs by SRB assay; conditions: NCI-H226, 48 h, read-out: GI
NCI-H460 = test: Cytotoxicity against human NCI-H460 cells at 10 uM after 48 hrs by SRB assay; conditions: NCI-H460, 48 h, read-out: GI
NCI-H522 = test: Cytotoxicity against human NCI-H522 cells at 10 uM after 48 hrs by SRB assay; conditions: NCI-H522, 48 h, read-out: GI
COLO 205 = test: Cytotoxicity against human COLO205 cells at 10 uM after 48 hrs by SRB assay
[12] = Cytotoxicity against human HCC2998 cells at 10 uM after 48 hrs by SRB assay; conditions: HCC 2998, 48 h, read-out: GI
[13] = Cytotoxicity against human HCT116 cells at 10 uM after 48 hrs by SRB assay; conditions: HCT-116, 48 h, read-out: GI
[14] = Cytotoxicity against human HCT15 cells at 10 uM after 48 hrs by SRB assay; conditions: HCT-15, 48 h, read-out: GI
HT-29 = test: Cytotoxicity against human HT-29 cells at 10 uM after 48 hrs by SRB assay; conditions: HT-29, 48 h, read-out: GI
KM12 = test: Cytotoxicity against human KM12 cells at 10 uM after 48 hrs by SRB assay; conditions: KM12, 48 h, read-out: GI
[15] = Cytotoxicity against human SW620 cells at 10 uM after 48 hrs by SRB assay; conditions: SW-620, 48 h, read-out: GI
[16] = Cytotoxicity against human SF268 cells at 10 uM after 48 hrs by SRB assay; conditions: SF-268, 48 h, read-out: GI
[17] = Cytotoxicity against human SF295 cells at 10 uM after 48 hrs by SRB assay; conditions: SF-295, 48 h, read-out: GI
[18] = Cytotoxicity against human SF539 cells at 10 uM after 48 hrs by SRB assay; conditions: SF-539, 48 h, read-out: GI
SNB-19 = test: Cytotoxicity against human SNB19 cells at 10 uM after 48 hrs by SRB assay
[19] = Cytotoxicity against human SNB75 cells at 10 uM after 48 hrs by SRB assay; conditions: SNB-75, 48 h, read-out: GI
[20] = Cytotoxicity against human LOXIMVI cells at 10 uM after 48 hrs by SRB assay; conditions: LOX IMVI, read-out: GI
Malme-3M = test: Cytotoxicity against human MALME-3M cells at 10 uM after 48 hrs by SRB assay; conditions: read-out: GI
M14 = test: Cytotoxicity against human M14 cells at 10 uM after 48 hrs by SRB assay
MDA-MB-435 = test: Cytotoxicity against human MDA-MB-435 cells at 10 uM after 48 hrs by SRB assay; conditions: MDA-MB-435, 48 h, read-out: GI
SK-MEL-2 = test: Cytotoxicity against human SK-MEL-2 cells at 10 uM after 48 hrs by SRB assay
SK-MEL-28 = test: Cytotoxicity against human SK-MEL-28 cells at 10 uM after 48 hrs by SRB assay
SK-MEL-5 = test: Cytotoxicity against human SK-MEL-5 cells at 10 uM after 48 hrs by SRB assay; conditions: SK-MEL-5, 48 h, read-out: GI
[21] = Cytotoxicity against human UACC257 cells at 10 uM after 48 hrs by SRB assay; conditions: UACC-257, 48 h, read-out: GI
[22] = Cytotoxicity against human UACC62 cells at 10 uM after 48 hrs by SRB assay; conditions: UACC-62, 48 h, read-out: GI
[23] = Cytotoxicity against human IGROV1 cells at 10 uM after 48 hrs by SRB assay; conditions: IGROV-1, 48 h, read-out: GI
[24] = Cytotoxicity against human OVCAR3 cells at 10 uM after 48 hrs by SRB assay; conditions: OVCAR-3, 48 h, read-out: GI
[25] = Cytotoxicity against human OVCAR4 cells at 10 uM after 48 hrs by SRB assay; conditions: OVCAR-4, 48 h, read-out: GI
[26] = Cytotoxicity against human OVCAR5 cells at 10 uM after 48 hrs by SRB assay; conditions: OVCAR-5, 48 h, read-out: GI
[27] = Cytotoxicity against human OVCAR8 cells at 10 uM after 48 hrs by SRB assay; conditions: OVCAR-8, 48 h, read-out: GI
NCI/ADR-RES = test: Cytotoxicity against human NCI-ADR-RES cells at 10 uM after 48 hrs by SRB assay
SK-OV-3 = test: Cytotoxicity against human SKOV3 cells at 10 uM after 48 hrs by SRB assay
786-0 = test: Cytotoxicity against human 786-0 cells at 10 uM after 48 hrs by SRB assay; conditions: 786-0, 48 h, read-out: GI
A498 = test: Cytotoxicity against human A498 cells at 10 uM after 48 hrs by SRB assay; conditions: A498, 48 h, read-out: GI
ACHN = test: Cytotoxicity against human ACHN cells at 10 uM after 48 hrs by SRB assay; conditions: read-out: GI

Q: For `Cc1nc2cc(Nc3nc(Nc4ccc(O)cc4)nc(Nc4ccc(F)cc4)n3)ccc2n1Cc1ccccc1`, which inhibition of growth at 10 µM [1] is on record?
A: 4.53%

Q: What about the inhibition of growth at 10 µM [2] of the same molecule?
A: 18.8%

Q: And the inhibition of growth at 10 µM (SN12C)?
A: 2.54%

Q: What about the “growth inhibition (GI)” value (TK-10) of the same molecule?
A: inactive

Q: What about the inhibition of growth at 10 µM [3] of the same molecule?
A: 6.02%

Q: What about the inhibition of growth at 10 µM [4] of the same molecule?
A: 10.7%

Q: And the inhibition of growth at 10 µM [5]?
A: 41.6%

Q: And the inhibition of growth at 10 µM (MCF7)?
A: 16%

Q: And the inhibition of growth at 10 µM (MDA-MB-231)?
A: 11.3%

Q: What about the inhibition of growth at 10 µM [6] of the same molecule?
A: 1.42%

Q: And the “growth inhibition (GI)” value (BT-549)?
A: inactive

Q: And the “growth inhibition (GI)” value (T47D)?
A: inactive

Q: And the inhibition of growth at 10 µM (MDA-MB-468)?
A: 13.4%

Q: And the inhibition of growth at 10 µM (CCRF-CEM)?
A: 8.15%

Q: And the inhibition of growth at 10 µM [7]?
A: 6.96%

Q: What about the inhibition of growth at 10 µM (K562) of the same molecule?
A: 21.3%

Q: What about the inhibition of growth at 10 µM [8] of the same molecule?
A: 19.8%

Q: And the inhibition of growth at 10 µM [9]?
A: 26.7%

Q: What about the inhibition of growth at 10 µM (SR) of the same molecule?
A: 20.8%

Q: What about the inhibition of growth at 10 µM (A549) of the same molecule?
A: 22.2%

Q: And the inhibition of growth at 10 µM [10]?
A: 3.47%

Q: What about the inhibition of growth at 10 µM [11] of the same molecule?
A: 17.8%

Q: What about the inhibition of growth at 10 µM (NCI-H226) of the same molecule?
A: 12.8%

Q: What about the inhibition of growth at 10 µM (NCI-H460) of the same molecule?
A: 18.2%

Q: What about the inhibition of growth at 10 µM (NCI-H522) of the same molecule?
A: 15.1%

Q: What about the “growth inhibition (GI)” value (COLO 205) of the same molecule?
A: inactive

Q: And the inhibition of growth at 10 µM [12]?
A: 4.67%

Q: What about the inhibition of growth at 10 µM [13] of the same molecule?
A: 10.6%

Q: And the inhibition of growth at 10 µM [14]?
A: 17.3%

Q: And the inhibition of growth at 10 µM (HT-29)?
A: 4.8%

Q: And the inhibition of growth at 10 µM (KM12)?
A: 17.6%

Q: And the inhibition of growth at 10 µM [15]?
A: 18.8%

Q: What about the inhibition of growth at 10 µM [16] of the same molecule?
A: 11.2%

Q: And the inhibition of growth at 10 µM [17]?
A: 5.35%

Q: What about the inhibition of growth at 10 µM [18] of the same molecule?
A: 6.34%

Q: What about the “growth inhibition (GI)” value (SNB-19) of the same molecule?
A: inactive

Q: And the inhibition of growth at 10 µM [19]?
A: 15.1%

Q: What about the inhibition of growth at 10 µM [20] of the same molecule?
A: 3.79%

Q: What about the inhibition of growth at 10 µM (Malme-3M) of the same molecule?
A: 0.89%

Q: And the “growth inhibition (GI)” value (M14)?
A: inactive

Q: And the inhibition of growth at 10 µM (MDA-MB-435)?
A: 4.26%

Q: What about the “growth inhibition (GI)” value (SK-MEL-2) of the same molecule?
A: inactive

Q: What about the “growth inhibition (GI)” value (SK-MEL-28) of the same molecule?
A: inactive

Q: And the inhibition of growth at 10 µM (SK-MEL-5)?
A: 5.6%

Q: What about the inhibition of growth at 10 µM [21] of the same molecule?
A: 3.73%

Q: And the inhibition of growth at 10 µM [22]?
A: 3.94%

Q: What about the inhibition of growth at 10 µM [23] of the same molecule?
A: 2.23%

Q: And the inhibition of growth at 10 µM [24]?
A: 8.38%

Q: What about the inhibition of growth at 10 µM [25] of the same molecule?
A: 12.8%

Q: And the inhibition of growth at 10 µM [26]?
A: 3.66%

Q: What about the inhibition of growth at 10 µM [27] of the same molecule?
A: 22.2%

Q: And the “growth inhibition (GI)” value (NCI/ADR-RES)?
A: inactive

Q: What about the “growth inhibition (GI)” value (SK-OV-3) of the same molecule?
A: inactive

Q: What about the inhibition of growth at 10 µM (786-0) of the same molecule?
A: 6.04%

Q: What about the inhibition of growth at 10 µM (A498) of the same molecule?
A: 13.4%

Q: And the inhibition of growth at 10 µM (ACHN)?
A: 8.7%

— ChEMBL document CHEMBL3745645, “Synthesis, in vitro antitumor activity, dihydrofolate reductase inhibition, DNA intercalation and structure-activity relationship studies of 1,3,5-triazine analogues” (Bioorg Med Chem Lett, 2016)
